Assays:
[1] = tested on: Arabidopsis WT (Col0), OE At, OE Pa, OE M3 lines; assay: Arabidopsis seed germination test on herbicide-containing 1/2 MS medium; format: in vivo, Arabidopsis thaliana; conditions: 2 weeks
Description: In order to evaluate the resistance of different HPPD overexpression lines to herbicides, Arabidopsis seed germination tests were performed on media containing different concentrations of herbicides. T3 generation Arabidopsis seeds and Co10 (WT) seeds were performed steam surface sterilization (concentrated HCl: NaClO=1:5, v/v) for 3 h. Seeds of OE At (OE At #1, OE At #2), OE Pa (OE Pa #1, OE Pa #2), OE M3 (OE M3 #1, OE M3 #2) and Co10 (WT) were dibbled together in ^1/2 MS medium (0.5 x MS salt, 1% sucrose and 0.8% agar) in a 24-well plate, and the medium contained different concentrations (0, 31.25, 62.5, 125, 500 and 2000 nM) of mesotrione (Sigma Aldrich, USA) and sulcotrione (Sigma Aldrich, USA). Then, the plate dibbled seeds was placed in the dark at 4° C. for 3 d, and then transferred to a growth chamber at 22° C. (16 h light/8 h dark) for 2 weeks. Three biological replicates were performed per treatment per species. After 2 weeks, the test results were photographed.

PaHPPD-SDM = PaHPPD-SDM (Pseudomonas aeruginosa, UniProt Q9I576, A156V/E349K/R282S); conditions: higher doses in the range 0-60 of herbicide
Sequence of PaHPPD-SDM (Q9I576 whole entry A156V/R282S/E349K): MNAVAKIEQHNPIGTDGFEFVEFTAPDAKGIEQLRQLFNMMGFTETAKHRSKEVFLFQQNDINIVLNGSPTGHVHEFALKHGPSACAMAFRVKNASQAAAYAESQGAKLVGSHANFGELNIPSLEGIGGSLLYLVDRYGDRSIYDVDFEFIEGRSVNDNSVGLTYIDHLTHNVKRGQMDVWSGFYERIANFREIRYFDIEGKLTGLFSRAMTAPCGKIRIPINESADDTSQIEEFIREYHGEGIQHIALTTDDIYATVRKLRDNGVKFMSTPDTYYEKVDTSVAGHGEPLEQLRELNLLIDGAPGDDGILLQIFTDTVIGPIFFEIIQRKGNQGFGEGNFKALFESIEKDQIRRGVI
Description: Specifically, the presence of tyrosine aminotransferase in E. coli DH5a can catalyze the production of p-hydroxyphenylpyruvate (4-HPP) from tyrosine, which is used as a substrate for HPPD to produce homogentisic acid (HGA). After further oxidation and polymerization, a brown substance is produced. The addition of HPPD inhibitors will inhibit this reaction, thereby reducing the production of pigment. Therefore, the gradation of pigment can be used as an inhibition index of HPPD activity. […] Through heterologous expression of HPPD mutant genes from different species in E. coli DH5α, the resistance characteristics of E. coli DH5α-mutated gene to triketone herbicides were analyzed by detecting the absorption value of pigment at 405 nm (FIGS. 2-6, 8 and 9).
The PaHPPD mutants obtained by random mutation was cloned into E. coli cells together with wild-type PaHPPD and AtHPPD for comparation and screening.
The bacteria solution shaking cultured overnight at 37° C. was centrifuged, and 200 μL of supernatant was transferred to a sterile 96-well plate (microplate with high throughput characteristics) using a 200 μL pipette on an ultra-clean workbench. The pigment content was measured with a microtiter plate reader at a wavelength of 405 nm (OD405 nm), and the HPPD activity was evaluated according to the size of the OD value.
Then the obtained PaHPPD-SDM mutant was compared with its parental mutants (PaHPPD-M3, PaHPPD-DS18, and PaHPPD-DS73) to understand their ability of brown pigmentation in the presence of triketone herbicides at different doses (0-60 μM). The calculation formula of HPPD activity (%) is as follows: HPPD activity(%)=(Am/Ac)×100
Wherein Am refers to the average value of the absorbance at a specific herbicide dose, and Ac refers to the average value of the absorbance without the herbicide.

Structure (SMILES)	concentration giving albino death / severely inhibited growth ([1]; OE At (two lines) and WT) [nM]	concentration at which seedlings grow normally ([1]; OE Pa (two lines), T3 seeds) [nM]	resistance by HPPD activity (%) compared with WT, PaHPPD-M3, PaHPPD-DS18 and PaHPPD-DS73 (PaHPPD-SDM)
CS(=O)(=O)c1ccc(C(=O)C2C(=O)CCCC2=O)c(Cl)c1 [sulcotrione]	31.25	62.5	improved the resistance
CS(=O)(=O)c1ccc(C(=O)C2C(=O)CCCC2=O)c(Cl)c1COCC(F)(F)F [tembotrion]			improved the resistance
